Test results reported in the supplement of paper PMC10307832.

Tests used:
Test in all cases: relative viability (nuclei count vs DMSO), 5 days (fraction); higher = more cells survive
NCI-H520 = test system: NCI-H520
Procedure, shortened: (§1)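 A single step with final 0.05% Triton X-100, 1% formaldehyde and 1 ug/ml Hoechst fixed the cells and stained nuclei 5 days after treatment. Lung cancer cell lines in 1536-well plates had been treated by pin tool the day after seeding with one drug alone or a fixed anchor-drug dose plus five library-drug doses (not always all listed) in √10 steps, and nuclei were counted on 4× images. Relative viability is the ratio of nuclei in treated wells to nuclei in vehicle wells, taken as the median of duplicate plates.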

NCI-H1299 = test system: NCI-H1299
Procedure, shortened: as §1

EBC-1 = test system: EBC-1
Procedure, shortened: as §1

NCI-H1648 = test system: NCI-H1648
Procedure, shortened: as §1

A549 = test system: A549
Procedure, shortened: as §1

Calu-6 = test system: Calu-6
Procedure, shortened: as §1

NCI-H1703 = test system: NCI-H1703
Procedure, shortened: as §1

IA-LM = test system: IA-LM
Procedure, shortened: as §1

NCI-H1623 = test system: NCI-H1623
Procedure, shortened: as §1

`COc1cc(N2CCC(C(N)=O)CC2)ccc1Nc1nc(N)c(Cl)c(Nc2ccccc2S(=O)(=O)C(C)C)n1` [HG-5-88-01] + O=C(c1cc(Cc2n[nH]c(=O)c3ccccc23)ccc1F)N1CCN(C(=O)C2CC2)CC1 [Olaparib] (partner 8 µM) showed a relative viability (NCI-H520; first compound 0.04 µM) of 0.289, a relative viability (NCI-H520; first compound 0.1265 µM) of 0.33 and a relative viability (NCI-H520; first compound 0.4 µM) of 0.389. It also gave a relative viability (NCI-H520; first compound 1.265 µM) of 0.327, a relative viability (NCI-H520; first compound 4 µM) of 0.363 and a relative viability (NCI-H1299; first compound 0.04 µM) of 0.956. It also gave a relative viability (NCI-H1299; first compound 0.1265 µM) of 0.972, a relative viability (NCI-H1299; first compound 0.4 µM) of 0.986 and a relative viability (NCI-H1299; first compound 1.265 µM) of 0.951. It also gave a relative viability (NCI-H1299; first compound 4 µM) of 0.87, a relative viability (EBC-1; first compound 0.04 µM) of 0.712 and a relative viability (EBC-1; first compound 0.1265 µM) of 0.77. For the same compound, the relative viability (EBC-1; first compound 0.4 µM) was 0.733, the relative viability (EBC-1; first compound 1.265 µM) was 0.668 and the relative viability (EBC-1; first compound 4 µM) was 0.489. It also gave a relative viability (NCI-H1648; first compound 0.04 µM) of 1.13, a relative viability (NCI-H1648; first compound 0.1265 µM) of 0.63 and a relative viability (NCI-H1648; first compound 0.4 µM) of 0.457. The relative viability (NCI-H1648; first compound 1.265 µM) was 0.773, the relative viability (NCI-H1648; first compound 4 µM) was 0.462 and the relative viability (A549; first compound 0.04 µM) was 0.357. The relative viability (A549; first compound 0.1265 µM) was 0.419, the relative viability (A549; first compound 0.4 µM) was 0.352 and the relative viability (A549; first compound 1.265 µM) was 0.273. The relative viability (A549; first compound 4 µM) was 0.25, the relative viability (Calu-6; first compound 0.04 µM) was 0.599 and the relative viability (Calu-6; first compound 0.1265 µM) was 0.579. For the same compound, the relative viability (Calu-6; first compound 0.4 µM) was 0.579, the relative viability (Calu-6; first compound 1.265 µM) was 0.537 and the relative viability (Calu-6; first compound 4 µM) was 0.46. It also gave a relative viability (NCI-H1703; first compound 0.04 µM) of 0.341, a relative viability (NCI-H1703; first compound 0.1265 µM) of 0.386 and a relative viability (NCI-H1703; first compound 1.265 µM) of 0.305. The relative viability (NCI-H1703; first compound 4 µM) was 0.309, the relative viability (IA-LM; first compound 0.04 µM) was 0.79 and the relative viability (IA-LM; first compound 0.1265 µM) was 0.839. The relative viability (IA-LM; first compound 0.4 µM) was 0.87, the relative viability (IA-LM; first compound 1.265 µM) was 0.699 and the relative viability (IA-LM; first compound 4 µM) was 0.649.

Compound `Clc1ccc(Nc2nnc(Cc3ccncc3)c3ccccc23)cc1` [Vatalanib] + CCNC(=O)c1noc(-c2cc(C(C)C)c(O)cc2O)c1-c1ccc(CN2CCOCC2)cc1 [Luminespib] (partner 0.01 µM) has a relative viability (NCI-H520; first compound 0.04 µM) of 0.199, a relative viability (NCI-H520; first compound 0.1265 µM) of 0.19 and a relative viability (NCI-H520; first compound 0.4 µM) of 0.22. The relative viability (NCI-H520; first compound 1.265 µM) was 0.221, the relative viability (NCI-H520; first compound 4 µM) was 0.246 and the relative viability (NCI-H1623; first compound 0.04 µM) was 0.428. For the same compound, the relative viability (NCI-H1623; first compound 0.1265 µM) was 0.616, the relative viability (NCI-H1623; first compound 0.4 µM) was 0.579 and the relative viability (NCI-H1623; first compound 1.265 µM) was 0.471. It also gave a relative viability (NCI-H1623; first compound 4 µM) of 0.478.

`Clc1ccc(Nc2nnc(Cc3ccncc3)c3ccccc23)cc1` [Vatalanib] + COc1cccc2cc(-c3nc([C@H]4CC[C@H](C(=O)O)CC4)n4ncnc(N)c34)[nH]c12 [OSI-027] (partner 0.5 µM) was tested, and the relative viability (NCI-H520; first compound 0.04 µM) was 0.25, the relative viability (NCI-H520; first compound 0.1265 µM) was 0.23 and the relative viability (NCI-H520; first compound 0.4 µM) was 0.244. The relative viability (NCI-H520; first compound 1.265 µM) was 0.252, the relative viability (NCI-H520; first compound 4 µM) was 0.224 and the relative viability (NCI-H1648; first compound 0.04 µM) was 0.258. It also gave a relative viability (NCI-H1648; first compound 0.1265 µM) of 0.265, a relative viability (NCI-H1648; first compound 0.4 µM) of 0.299 and a relative viability (NCI-H1648; first compound 1.265 µM) of 0.238. It also gave a relative viability (NCI-H1648; first compound 4 µM) of 0.255, a relative viability (NCI-H1623; first compound 0.04 µM) of 0.39 and a relative viability (NCI-H1623; first compound 0.1265 µM) of 0.618. For the same compound, the relative viability (NCI-H1623; first compound 0.4 µM) was 0.446, the relative viability (NCI-H1623; first compound 1.265 µM) was 0.418 and the relative viability (NCI-H1623; first compound 4 µM) was 0.386.

`Clc1ccc(Nc2nnc(Cc3ccncc3)c3ccccc23)cc1` [Vatalanib] + Cc1cc(Nc2cc(N3CCN(C)CC3)nc(Sc3ccc(NC(=O)C4CC4)cc3)n2)n[nH]1 [Tozasertib] (partner 0.1 µM) gave a relative viability (NCI-H520; first compound 0.04 µM) of 0.443, a relative viability (NCI-H520; first compound 0.1265 µM) of 0.385 and a relative viability (NCI-H520; first compound 0.4 µM) of 0.467. It also gave a relative viability (NCI-H520; first compound 1.265 µM) of 0.443, a relative viability (NCI-H520; first compound 4 µM) of 0.422 and a relative viability (NCI-H1648; first compound 0.04 µM) of 0.581. It also gave a relative viability (NCI-H1648; first compound 0.1265 µM) of 0.442, a relative viability (NCI-H1648; first compound 0.4 µM) of 0.483 and a relative viability (NCI-H1648; first compound 1.265 µM) of 0.523. It also gave a relative viability (NCI-H1648; first compound 4 µM) of 0.419, a relative viability (NCI-H1623; first compound 0.04 µM) of 0.415 and a relative viability (NCI-H1623; first compound 0.1265 µM) of 0.435. It also gave a relative viability (NCI-H1623; first compound 0.4 µM) of 0.455, a relative viability (NCI-H1623; first compound 1.265 µM) of 0.374 and a relative viability (NCI-H1623; first compound 4 µM) of 0.393.

In the case of `Clc1ccc(Nc2nnc(Cc3ccncc3)c3ccccc23)cc1` [Vatalanib] + Cc1nc(Nc2ncc(C(=O)Nc3c(C)cccc3Cl)s2)cc(N2CCN(CCO)CC2)n1 [Dasatinib] (partner 0.075 µM), the relative viability (NCI-H520; first compound 0.04 µM) is reported as 0.205, the relative viability (NCI-H520; first compound 0.1265 µM) is reported as 0.202 and the relative viability (NCI-H520; first compound 0.4 µM) is reported as 0.218. It also gave a relative viability (NCI-H520; first compound 1.265 µM) of 0.161, a relative viability (NCI-H520; first compound 4 µM) of 0.126 and a relative viability (NCI-H1623; first compound 0.04 µM) of 0.449. It also gave a relative viability (NCI-H1623; first compound 0.1265 µM) of 0.619, a relative viability (NCI-H1623; first compound 0.4 µM) of 0.545 and a relative viability (NCI-H1623; first compound 1.265 µM) of 0.533. For the same compound, the relative viability (NCI-H1623; first compound 4 µM) was 0.435.

For `Clc1ccc(Nc2nnc(Cc3ccncc3)c3ccccc23)cc1` [Vatalanib] + N=C(N)NC(=N)NCCc1ccccc1 [Phenformin] (partner 250 µM), the relative viability (NCI-H520; first compound 0.04 µM) was 0.722, the relative viability (NCI-H520; first compound 0.1265 µM) was 0.412 and the relative viability (NCI-H520; first compound 0.4 µM) was 0.83. It also gave a relative viability (NCI-H520; first compound 1.265 µM) of 0.493, a relative viability (NCI-H520; first compound 4 µM) of 0.479 and a relative viability (A549; first compound 0.04 µM) of 0.206. For the same compound, the relative viability (A549; first compound 0.1265 µM) was 0.131, the relative viability (A549; first compound 0.4 µM) was 0.104 and the relative viability (A549; first compound 1.265 µM) was 0.143. It also gave a relative viability (A549; first compound 4 µM) of 0.154, a relative viability (NCI-H1623; first compound 0.04 µM) of 0.584 and a relative viability (NCI-H1623; first compound 0.1265 µM) of 0.577. The relative viability (NCI-H1623; first compound 0.4 µM) was 0.514, the relative viability (NCI-H1623; first compound 1.265 µM) was 0.581 and the relative viability (NCI-H1623; first compound 4 µM) was 0.524.

`Clc1ccc(Nc2nnc(Cc3ccncc3)c3ccccc23)cc1` [Vatalanib] + O=C(c1cc(Cc2n[nH]c(=O)c3ccccc23)ccc1F)N1CCN(C(=O)C2CC2)CC1 [Olaparib] (partner 8 µM) was tested, and the relative viability (NCI-H520; first compound 0.04 µM) was 0.392, the relative viability (NCI-H520; first compound 0.1265 µM) was 0.361 and the relative viability (NCI-H520; first compound 0.4 µM) was 0.37. The relative viability (NCI-H520; first compound 1.265 µM) was 0.283, the relative viability (NCI-H520; first compound 4 µM) was 0.34 and the relative viability (NCI-H1299; first compound 0.04 µM) was 0.986. For the same compound, the relative viability (NCI-H1299; first compound 0.1265 µM) was 0.924, the relative viability (NCI-H1299; first compound 0.4 µM) was 1.04 and the relative viability (NCI-H1299; first compound 1.265 µM) was 0.923. It also gave a relative viability (NCI-H1299; first compound 4 µM) of 0.965, a relative viability (EBC-1; first compound 0.04 µM) of 0.761 and a relative viability (EBC-1; first compound 0.1265 µM) of 0.59. It also gave a relative viability (EBC-1; first compound 0.4 µM) of 0.817, a relative viability (EBC-1; first compound 1.265 µM) of 0.663 and a relative viability (EBC-1; first compound 4 µM) of 0.654. The relative viability (NCI-H1648; first compound 0.04 µM) was 0.943, the relative viability (NCI-H1648; first compound 0.1265 µM) was 0.866 and the relative viability (NCI-H1648; first compound 0.4 µM) was 1.01. For the same compound, the relative viability (NCI-H1648; first compound 1.265 µM) was 0.611, the relative viability (NCI-H1648; first compound 4 µM) was 1.04 and the relative viability (A549; first compound 0.04 µM) was 0.478. For the same compound, the relative viability (A549; first compound 0.1265 µM) was 0.302, the relative viability (A549; first compound 0.4 µM) was 0.532 and the relative viability (A549; first compound 1.265 µM) was 0.239. The relative viability (A549; first compound 4 µM) was 0.3, the relative viability (Calu-6; first compound 0.1265 µM) was 0.567 and the relative viability (Calu-6; first compound 0.4 µM) was 0.539. It also gave a relative viability (Calu-6; first compound 1.265 µM) of 0.554, a relative viability (Calu-6; first compound 4 µM) of 0.541 and a relative viability (NCI-H1703; first compound 0.04 µM) of 0.506. The relative viability (NCI-H1703; first compound 0.4 µM) was 0.624, the relative viability (NCI-H1703; first compound 1.265 µM) was 0.299 and the relative viability (NCI-H1703; first compound 4 µM) was 0.22. For the same compound, the relative viability (IA-LM; first compound 0.04 µM) was 0.89, the relative viability (IA-LM; first compound 0.1265 µM) was 0.843 and the relative viability (IA-LM; first compound 0.4 µM) was 0.831. It also gave a relative viability (IA-LM; first compound 1.265 µM) of 0.701 and a relative viability (IA-LM; first compound 4 µM) of 0.645.
